Like-named read-outs stand apart in the source and are kept apart here.
Key:
[1] = initially about pH 3.7±0.2
Experimental: Such a pH can be maintained for example through co-dissolving citric acid and/or a citrate salt, e.g., monosodium citrate, for example to about 10-50 mM concentration. For infusion it is desired, in order to avoid acid-caused pain, to raise the pH at least to pH 2.4±0.3, for example to 2.4±0.3, 2.6±0.3, 2.8±0.3, 3.1±0.3, 3.4±0.3, 3.7±0.3 or to 4.0±0.3, for example by adding citric acid, monosodium citrate, or trisodium citrate.

[2] = 0.44 M LDEE.HCl, pH 3.7±0.1, 4.0° C., 39 weeks, 3 samples
Experimental: The LD concentration was monitored in 3 samples of 0.44 M LDEE.HCl at pH 3.7±0.1 and 4.0° C.

[3] = 25° C., pH 7 or pH 5; cited from earlier work
[4] = Rate of hydrolysis of LD esters in solution; assay type: physicochemical; conditions: about pH 4.5, about 23° C.
Experimental: At a particular temperature and pH, the LDEs formed of LD and of different alcohols are hydrolyzed prior to their infusion at different rates. […] The rate of hydrolysis of LDE salts also depends on the anion, i.e., on the acid forming the LDE salt. LDE is hydrolyzed more rapidly when carboxylate anions and/or carboxylic acids replace the chloride anion or HCl. The rate of hydrolysis of the salt formed of LDEE and acetic acid can be about 3 times faster at about pH 4.5 at about 23° C. than that of LDEE.HCl, the salt formed of LDEE and HCl. The rate of hydrolysis at a particular pH and temperature can therefore depend on the buffering agent, e.g., citric acid and/or citrate anions, becoming faster when their concentration is elevated. Typically, the concentration of the buffering ions, i.e., the combined concentrations of citrates and citric acid, is between about 5 mM and 100 mM, for example between about 10 mM and 50 mM. The rate of hydrolysis can increase, for example, when the buffering citric acid-citrate concentration is increased.
In aqueous LDE salt pharmaceutical compositions, the hydrolysis rates generally decrease as the pH decreases, and the shelf life of the LDE salt consequently increases, unless the pH is about 1.7±0.5 or less. […] In acidic pharmaceutical compositions the amines of the LDEs are protonated, making the LDEs cations. […] The rates of hydrolysis generally increase with temperature, and may at least about double or about triple for each 10° C. increase, correspondingly decreasing upon cooling.

[5] = about 0.44 M LDEE.HCl infusible composition
[6] = about 1.0 M LDEE.HCl infusible composition
[7] = first infusion, continuous over 16 hours, 0.163 mL/hour, end of infusion

CCOC(=O)[C@@H](N)Cc1ccc(O)c(O)c1.Cl [LDEE.HCl, hydrochloride salt of the ethyl ester of L-DOPA]
Estimated operational life at 30° C. [1, 5]: >3 days
Estimated operational life at 37° C. [1, 5]: >2 days
Estimated storage life at 4° C. [1, 5]: >1.5 years
Estimated storage life at 25° C. [1, 5]: >1 months
Estimated operational life at 30° C. [1, 6]: >2 days
Estimated operational life at 37° C. [1, 6]: >1 days
Estimated storage life at 4° C. [1, 6]: >6 months
Estimated storage life at 25° C. [1, 6]: >2 weeks
concentration of LD after refrigerated storage [2]: less than 2 mg/mL
pain during infusion (0.48 M LDEE.HCl pH 3.5, 1.25 millimoles per infusion, all three infusions): no pain at any time during the infusions
diameter of area with redder skin [7]: 3 cm
diameter of slightly protruding hard swelling [7]: 2.5 cm
diameter of palpable induration (first infusion, continuous over 16 hours, after 21 hours): 1 cm
diameter of induration (first infusion, continuous over 16 hours, after 2 days): 0.5 cm
skin symptoms (second infusion, intermittent over 10.5 hours, 0.35 mL/hour, with oral carbidopa, end of infusion): no skin symptoms at the end of the infusion
skin symptoms (second infusion, intermittent over 10.5 hours, with oral carbidopa, after 11 hours): a barely perceptible very lightly pink 2.5 cm diameter zone and a very mild soft palpable swelling
skin symptoms (second infusion, intermittent over 10.5 hours, with oral carbidopa, after 36 hours): only a barely palpable 3 cm long 1 cm wide soft horizontal induration
skin symptoms (third infusion, intermittent over 10.8 hours, 0.35 mL/hour, without oral carbidopa, end of infusion): no significant skin symptoms at the end of the infusion
skin symptoms (third infusion, intermittent, without oral carbidopa, four hours after end of infusion): very slightly more pink over a 2.5 cm diameter zone and there was a small (2 cm×1 cm) barely palpable induration
skin symptoms (third infusion, intermittent, without oral carbidopa, fourteen hours after end of infusion): the site could be recognized by its pink color

N[C@@H](Cc1ccc(O)c(O)c1)C(=O)O [levodopa]
solubility [3]: ≤ 5 g per liter

CC(=O)O.CCOC(=O)C(N)Cc1ccc(O)c(O)c1 (stereo not shown) [salt formed of LDEE and acetic acid]
rate of hydrolysis relative to LDEE.HCl [4]: about 3 times

Source: patent US20150217046A1, “DOSING REGIMENS FOR SUBCUTANEOUSLY INFUSIBLE ACIDIC COMPOSITIONS” (SynAgile Corporation, priority 2012, published 2015)
